Reference: patent US20250346588A1, “IMIDAZOPYRIDINE AND OXAZOLOPYRIDINE DERIVATIVES AND ANALOGS THEREOF, METHODS OF PREPARATION THEREOF, METHODS OF HIF-1/2A PATHWAY INHIBITION, AND INDUCTION OF FERROPTOSIS” (KUDA THERAPEUTICS, INC., priority 2022, published 2025)

System: HIF-2α transcriptional activity
Experiment: Hypoxia-responsive element-driven luciferase (HRE-Luc) screen
Type: cell-based, human
Conditions: 786-0 ccRCC cells stably expressing HRE-Luc; 24 h treatment; range of IC50 values
Experimental: Screens for inhibitory activity of compounds described herein were performed using 786-0 ccRCC cells that stably express HRE-Luc: 5 copies of the hypoxia-responsive element (HRE) fused to the pGL3 luciferase reporter (Promega Corp, Madison WI). 786-0 cells are pVHL deficient and thus constitutively express HIF-2α independently of cellular oxygen tension. Since 786-0 cells lack HIF-1α, HRE-driven luciferase activity is primarily HIF-2α driven, and has been previously validated. Cells were maintained at log phase growth in […] (DMEM) with 10% FBS in a humidified incubator at 37° C. with 5% CO2. For screening assays, cells were seeded at a density of 4,000 cells in 50 μl of complete media/well in quadruplicate wells/point in a 96-well plate. After 24 h, 50 μl of a 2× concentration of test compound was added to each well. Compounds were diluted from a 5-10 mM stock in DMSO and final concentrations of DMSO in each well in controls and treated wells were kept constant at ≤0.6% DMSO. After 24 h treatment, luciferase activity was measured using the Steady-Glo Luciferase assay system (Promega Corp) according to the manufacturer's protocol. Cell viability was measured in quadruplicate parallel wells using resazurin as recommended by the manufacturer (R&D systems, Minneapolis, MN). Data for luciferase and resazurin were normalized to DMSO treated controls (defining 100%) and wells containing assay reagent but no cells (defining 0%) and graphed using the log inhibitor versus normalized response option in Graphpad Prism 9.3.1 software. Representative data determined using Steady-Glo luciferase and resazurin are shown in FIGS. 1A and 1B respectively, with error bars showing SD. Filled diamonds, empty squares and empty triangles indicate treatment with 3, 8 and 22 respectively with results for HRE-Luc shown in FIG. 1A.

IC50	Compound
10 to 50 µM	COc1cccc2nc(Nc3nnc(C4CCC(OC)CC4)o3)[nH]c12 (single isomer, unassigned) [Compound 75-isomer-2, N-(7-methoxy-1H-benzo[d]imidazol-2-yl)-5-(4-methoxycyclohexyl)-1,3,4-oxadiazol-2-amine]
10 to 50 µM	COc1ccc(-c2nnc(Nc3nc4c(Cl)nccc4[nH]3)o2)cc1 [Compound 23, N-(4-chloro-1H-imidazo[4,5-c]74yridine-2-yl)-5-(4-methoxyphenyl)-1,3,4-oxadiazol-2-amine]

Same assay, conditions: Homo sapiens, 786-0, 24 h, 786-0 ccRCC cells stably expressing HRE-Luc; 24 h treatment; range of IC50 values

Compound	IC50
Fc1ccc(-c2nnc(Nc3nc4ncccc4o3)o2)cc1 [Compound 8, N-(5-(4-Fluorophenyl)-1,3,4-oxadiazol-2-yl)oxazolo[4,5-b]pyridin-2-amine]	> 10 µM
COc1ccc2nc(Nc3nnc(-c4ccc(F)cc4)o3)sc2n1 [Compound 9, 5-(4-Fluorophenyl)-N-(5-methoxythiazolo[5,4-b]pyridin-2-yl)-1,3,4-oxadiazol-2-amine]	50 to 100 µM
Fc1ccc(-c2nnc(Nc3nc4cncc(N5CCOCC5)c4[nH]3)o2)cc1 [Compound 18, 5-(4-Fluorophenyl)-N-(7-morpholino-1H-imidazo[4,5-c]pyridin-2-yl)-1,3,4-oxadiazol-2-amine]	10 to 50 µM
COc1cccc(-c2nccc3nc(Nc4nnc(-c5ccc(F)cc5)o4)[nH]c23)c1 [Compound 19, 5-(4-Fluorophenyl)-N-(4-(3-methoxyphenyl)-3H-imidazo[4,5-c]pyridin-2-yl)-1,3,4-oxadiazol-2-amine]	50 to 100 µM
COc1nccc2[nH]c(Nc3nnc(-c4ccc(C(F)(F)F)cc4)o3)nc12 [Compound 20, N-(4-methoxy-1H-imidazo[4,5-c]pyridin-2-yl)-5-(4-(trifluoromethyl)phenyl)-1,3,4-oxadiazol-2-amine]	10 to 50 µM
COc1nccc2[nH]c(Nc3nnc(-c4ccc(OC(F)(F)F)cc4)o3)nc12 [Compound 21, N-(4-methoxy-1H-imidazo[4,5-c]pyridin-2-yl)-5-(4-(trifluoromethoxy)phenyl)-1,3,4-oxadiazol-2-amine]	10 to 50 µM

Results, then the molecule that gave them:

IC50	Compound
< 10 µM	COc1cccc2nc(Nc3nnc(C4CCC(OC)CC4)o3)[nH]c12 (single isomer, unassigned) [Compound 75-isomer-1, N-(7-methoxy-1H-benzo[d]imidazol-2-yl)-5-(4-methoxycyclohexyl)-1,3,4-oxadiazol-2-amine]
< 10 µM	COc1ccc2[nH]c(Nc3nnc(-c4ccc(F)cc4)o3)nc2n1 [Compound 4, 5-(4-Fluorophenyl)-N-(5-methoxy-1H-imidazo[4,5-b]pyridin-2-yl)-1,3,4-oxadiazol-2-amine]
10 to 50 µM	Fc1ccc(-c2nnc(Nc3nc4cnc(Cl)cc4[nH]3)o2)cc1 [Compound 5, N-(6-Chloro-1H-imidazo[4,5-c]pyridin-2-yl)-5-(4-fluorophenyl)-1,3,4-oxadiazol-2-amine]
10 to 50 µM	Fc1ccc(-c2nnc(Nc3nc4cnc(C(F)(F)F)cc4[nH]3)o2)cc1 [Compound 6, 5-(4-Fluorophenyl)-N-(6-(trifluoromethyl)-1H-imidazo[4,5-c]pyridin-2-yl)-1,3,4-oxadiazol-2-amine]
10 to 50 µM	Cc1cncc2nc(Nc3nnc(-c4ccc(F)cc4)o3)[nH]c12 [Compound 7, 5-(4-Fluorophenyl)-N-(7-methyl-1H-imidazo[4,5-c]pyridin-2-yl)-1,3,4-oxadiazol-2-amine]
10 to 50 µM	Fc1ccc(-c2nnc(Nc3nc4cnc(N5CCOCC5)cc4[nH]3)o2)cc1 [Compound 10, 5-(4-Fluorophenyl)-N-(6-morpholino-1H-imidazo[4,5-c]pyridin-2-yl)-1,3,4-oxadiazol-2-amine]
10 to 50 µM	Fc1ccc(-c2nnc(Nc3nc4cnc(Cl)nc4[nH]3)o2)cc1 [Compound 14, N-(2-Chloro-9H-purin-8-yl)-5-(4-fluorophenyl)-1,3,4-oxadiazol-2-amine]
10 to 50 µM	Fc1ccc(-c2nnc(Nc3nc4ccnc(N5CCOCC5)c4[nH]3)o2)cc1 [Compound 17, 5-(4-Fluorophenyl)-N-(4-morpholino-3H-imidazo[4,5-c]pyridin-2-yl)-1,3,4-oxadiazol-2-amine]
